The subject of the assay is CEM cells HIV-1 protection, formazan growth assay. As to the kind of experiment: NCI AIDS Antiviral Assay. As to conditions: for IC50: measured here: growth of uninfected CEM cells. A digest of the protocol:
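Human CEM cells, uninfected and HIV-1-infected, received five drug concentrations, and growth was read by soluble formazan assay. Compounds giving at least 50% protection were retested; reproducible 100% protection defined confirmed active.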

Several values for one entry are separate records, joined by “and”; a condition that tells them apart may be missing. Identical values can stand only once. Activity calls are given as the source filed them.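 The calls were made as follows: active = compounds giving half or more protection of infected cells from virus-caused growth loss, again on retest; inactive = the rest.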 Where a SMILES comes first, the peptide text is derived from it.

For the molecule `CCOC(=O)C(NC(C)=O)(Nc1ccc(F)cc1)C(F)(F)F` (stereo not given), the result was inactive. Consider `COc1ccc(OC)c2c(C(=O)O)c(C(C)c3ccccc3)ccc12` (stereo not given), for which the outcome was inactive. Take `CCCCCCCCCCCCCCCCC(=O)NCC(=O)NCC(=O)NC(Cc1ccccc1)C(=O)Oc1ccc([N+](=O)[O-])cc1` (stereo not given): the EC50 was more than 200 µM and the IC50 turned out to be 18.2 µM. The matching figures for `COC(=O)/C(=N\NC(=O)c1ccccc1O)C(C#N)c1ccccc1` (stereo not given): more than 741 µM and 5.62 µM. The corresponding values for `Cc1c(-c2ccccc2)nn2cc(-c3ccccc3)nnc12` are more than 200 µM and 11 µM. Take `CCOC(=O)CC1=Nc2ccccc2SC1`: the outcome was inactive. `NC(N)=NS(=O)(=O)c1ccc(NNC(=O)c2cccc3c(=O)c4ccccc4[nH]c23)cc1`: the EC50 was more than 200 µM and the IC50 stood at 33.9 µM.

For `Cc1ncc2c(n1)NC(c1ccc([N+](=O)[O-])cc1)NC2` (stereo not given), the EC50 was more than 69.2 µM and the IC50 is more than 69.2 µM. Regarding `OCC(O)C(O)C(O)c1nn(-c2ccccc2)c2nc3ccc(Cl)cc3nc12` (stereo not given), the EC50 is more than 112 µM and the 50% inhibitory concentration (IC50) is more than 112 µM.

`COc1ccccc1NC(=O)/C(=C\N1C(=O)/C(=C/c2cc(OC)c(OC)c(OC)c2)SC1=S)C(C)=O`: the EC50 was more than 100 µM and the IC50 is 12.9 µM. The matching figures for `CCCCCCCCCCCCCCCCP(=O)(O)OCC(N)C(=O)O` (stereo not given): more than 200 µM and 95.5 µM.

Regarding `COC(=O)CC(=O)C[P+](c1ccccc1)(c1ccccc1)c1ccccc1`, the EC50 is more than 550 µM and the IC50 is 42.7 µM. The matching figures for `O=C1c2c(O)cc(O)cc2C(C2OC(CO)C(O)C(O)C2O)c2cc(CO)cc(O)c21` (stereo not given): more than 200 µM and more than 200 µM.

As for `CC(C)(C)N=NC(C)(C)N=C=O`, the EC50 is more than 251 µM and the IC50 was more than 251 µM. `CC(=O)NNc1nc(C)c(C(=O)NNC(=O)C(=O)Nc2nc3ccc([N+](=O)[O-])cc3s2)s1`: the EC50 was more than 141 µM and the IC50 was determined as 33.1 µM. The corresponding values for `O=C(Cc1nc2ccccc2[nH]1)N/N=C1\SCC(=O)N1c1ccc(Cl)cc1` are more than 182 µM and more than 182 µM. The matching figures for `CCOC(=O)C(NC(=O)c1ccccc1)[CH](c1ccc(OC)cc1)[Sn]([c]1ccccc1)([c]1ccccc1)[c]1ccccc1` (stereo not given): 34.7 µM and 81.3 µM. The matching figures for `CC12CCC(CC(=O)/C1=C(/Br)I)C2(C)C` (stereo not given): more than 200 µM and 36.3 µM. Consider `CC1([N+](=O)[O-])COP(=O)(Nc2cccc(Cl)c2)OC1` (stereo not given), for which the EC50 is more than 813 µM and the IC50 is 398 µM.

Turning to `CC1CC(c2ccc(Cl)c(Cl)c2)=Nc2ccccc2S1` (stereo not given), the EC50 is more than 6.17 µM and the IC50 was more than 6.17 µM.

For the molecule `COc1cc2c3c(cccc3c1)C(=O)N(CCN1CCCC1)C2=O`, the EC50 is more than 200 µM and the IC50 was 2.45 µM. The matching figures for `N#CC1C(=O)N(c2ccccc2)NC12OC(=O)c1ccncc12` (stereo not given): more than 200 µM and more than 200 µM.

Turning to `CN(C)C=Nc1cccc2cnccc12`, the EC50 is more than 200 µM and the IC50 turned out to be 166 µM. As to `[N-]=[N+]=NCC(CO)OCn1cc(Cc2ccccc2)c(=O)[nH]c1=O` (stereo not given), the outcome was inactive. For the molecule `COC(=O)/C(=N/NC(C)(C)C)C(C(=O)OC)C(=O)C(=O)Nc1nc2ccc([N+](=O)[O-])cc2s1` (stereo not given), the EC50 was more than 53.7 µM and the IC50 was more than 53.7 µM. As to `C(=C\c1ccccc1)/Cn1nc(-c2ccccc2)nc1-c1cnccn1`, the EC50 was 145 µM and the IC50 is more than 200 µM. For the molecule `O=C1C=CC(=O)C2C1Cc1ccccc1C2c1ccccc1` (stereo not given), the outcome was inactive. Consider `COc1ccc(C23CCC(=O)N2CCS3)cc1` (stereo not given), for which the outcome was inactive. On to `CC1CCCCC12NC(=O)NC2=O` (stereo not given), for which the EC50 is more than 200 µM and the half-inhibitory concentration (IC50) is more than 200 µM. With `CC(=O)NC1CC(C(C)(C)NC(C)=O)CC=C1C` (stereo not given), the EC50 is more than 269 µM and the IC50 was more than 269 µM. For the molecule `O=C(COC(=O)c1cccc2c(=O)c3ccccc3[nH]c12)Nc1ccc(C(=O)O)cc1`, the outcome was inactive. Take `Cc1ccc2c(c1)C(=O)C1(Cc3ccccc3C1=O)C2` (stereo not given): the EC50 is more than 200 µM and the IC50 is more than 200 µM. For `Cc1cc(Cl)ccc1N=C1NC(=O)C(CC(=O)Nc2ccc([N+](=O)[O-])cc2[N+](=O)[O-])S1` (stereo not given), the EC50 is more than 77.6 µM and the half-inhibitory concentration (IC50) was 67.6 µM. The matching figures for `CC1(C)NN=C(SCc2ccccc2)NC1=O`: 40.7 µM and 145 µM.

With `O=c1cc(N2CCN(c3cc(=O)n4ccccc4n3)CC2)oc2ccccc12`, the EC50 was more than 200 µM and the IC50 is more than 200 µM.

With `CCOC(=O)c1ccccc1NN1C(=O)C=CC1=O`, the EC50 was more than 347 µM and the IC50 was found to be 52.5 µM. Take `Cn1c(=O)nc2n(-c3cc(Cl)ccc3Cl)c3ccccc3nc-2c1=O`: the result was inactive. In the case of `CCCCn1[nH]c(=O)ccc1=O`, the EC50 is more than 1480 µM and the IC50 came out at 1410 µM. Consider `ClCCNCCNCCCl.O=c1cccccc1[O-].O=c1cccccc1[O-].[Co+3].[O-][Cl+3]([O-])([O-])[O-]`, for which the EC50 was more than 200 µM and the IC50 was determined as 5.01 µM. For the molecule `CN1CCN(Cc2ccccc2)CC1CC#N` (stereo not given), the EC50 is 1.95 µM and the IC50 was more than 200 µM.

With `NC(=O)c1ncn(C2CCC(CP(=O)(O)O)C2)c1N` (stereo not given), the EC50 is more than 200 µM and the IC50 was more than 200 µM. For the molecule `CCCC1C(CC)C(NC)C(C#N)(C#N)C1(C#N)C#N` (stereo not given), the EC50 is more than 200 µM and the concentration for half-maximal inhibition (IC50) turned out to be 10.2 µM. `O=c1[nH]c(=O)n(COCc2ccccc2)c2ccsc12`: the outcome was inactive. As to `C[C@]12CC(O)C3[C@@H](CC=C4CC(O)CC[C@@]43C)C1CCC2O` (stereo not given in full), the result was inactive. On to `COC1/C=C/OC2(C)Oc3c(C)c(O)c4c(O)c(c(/C=N/N(c5ccccc5)c5ccccc5)c(O)c4c3C2=O)NC(=O)C(C)=C/C=C/C(C)C(O)C(C)C(O)C(C)C(OC(C)=O)C1C` (stereo not given), for which the EC50 was more than 200 µM and the IC50 is 7.41 µM. In the case of `CCOC(=O)/C=C/SCCCC(=O)O`, the half-inhibitory concentration (IC50) was > 1150 µM and 1150 µM. As for `Cc1ccc(/C([O-])=C(\C(=S)Nc2cccc(C)c2)[n+]2ccccc2)cc1`, the outcome was inactive. Consider `C/C=C/C=C1\C=Cc2c(C(=O)OC)coc(=O)c21`, for which the EC50 is more than 200 µM and the IC50 is 35.5 µM.

On to `O=C(O)Cn1ncn(NC(=O)Cc2ccccc2)c1=S`, for which the EC50 was more than 200 µM and the half-maximal inhibitory concentration (IC50) is more than 200 µM. Consider `Cc1ccc(C2(O)CC(c3ccc([N+](=O)[O-])o3)=NN2C(=O)COc2ccccc2Cl)cc1` (stereo not given), for which the EC50 was more than 1.66 µM and the concentration for half-maximal inhibition (IC50) is more than 1.66 µM.

For `CC1(C)CC23C4COC(=O)C2CCC1C3CC4=O` (stereo not given), the EC50 was more than 117 µM and the IC50 worked out at 4.07 µM. The matching figures for `O=C(c1ccccc1)c1ccsc1C(=O)O`: more than 200 µM and more than 200 µM. Consider `NS(=O)(=O)c1ccc(N2C(=O)C(=O)N(c3ccccc3)C2=S)cc1`, for which the EC50 is more than 200 µM and the IC50 stood at 19.5 µM.

As for `COP1(=O)CC2C(Cl)(Cl)C2(C)C1` (stereo not given), the outcome was inactive.

As to `NC(=O)[N+](=CC(=S)Nc1ccccc1Cl)C(N)=O`, the EC50 is more than 200 µM and the IC50 is more than 200 µM. Consider `CC(C)(C)c1ccc(-c2nc3ccccc3c(=O)o2)cc1`, for which the EC50 was more than 200 µM and the concentration for half-maximal inhibition (IC50) came out at 38.9 µM. The matching figures for `CC(CCC#N)(CCC#N)C(=O)CC(O)(C(F)(F)F)C(F)(F)F`: more than 200 µM and 2.34 µM. As for `CC(C)(C)CC1=CC(=O)C(C2=CC(=O)C(CC(C)(C)C)=CC2=O)=CC1=O`, the EC50 is more than 2 µM and the half-inhibitory concentration (IC50) was more than 2 µM. Regarding `CN(C)c1ccc(/C=C(\NC(=O)c2ccccc2)C(=O)Nc2cccc(C(=O)NCCCO)c2)cc1`, the EC50 is more than 200 µM and the half-maximal inhibitory concentration (IC50) is more than 200 µM. Turning to `Cc1ccc(N(C(=O)CC(=O)N2N=C(c3ccccc3)C(N=Nc3ccc([N+](=O)[O-])cc3)C2=O)C(=O)c2ccc(Cl)cc2)cc1` (stereo not given), the EC50 is more than 11.5 µM and the IC50 worked out at 9.12 µM. The corresponding values for `OCc1ccc2[n+](c1)CCC1c3ccccc3NC21` (stereo not given) are more than 77.6 µM and more than 77.6 µM. The corresponding values for `O=C(Nc1nc(C23CC4CC(CC(C4)C2)C3)cs1)c1cc2ccccc2oc1=O` are more than 200 µM and more than 200 µM. The corresponding values for `O=C(CCCCCCCCC(=O)OCC1OC(n2cnc3c(=O)[nH]cnc32)C(O)C1O)OCC1OC(n2cnc3c(=O)[nH]cnc32)C(O)C1O` (stereo not given) are more than 355 µM and more than 355 µM. Take `CCC1(N=[N+]=[N-])C(=O)c2ccccc2N(c2ccccc2)C1=O` (stereo not given): the EC50 was more than 200 µM and the IC50 is more than 200 µM. Consider `O=C1[C@@H](c2ccc(Cl)cc2)[C@H]2CC=C[C@H]2N1O`, for which the EC50 was more than 355 µM and the half-inhibitory concentration (IC50) turned out to be 61.7 µM.

`CC(C)N(C(=O)C12C3C4C1C1C2C3C41I)C(C)C` (stereo not given): the EC50 is more than 191 µM and the concentration for half-maximal inhibition (IC50) was more than 191 µM. Take `C1CN2CCO[SiH](O1)OCC2`: the outcome was inactive. Take `O=C1NCCS(=O)(=O)N2CCC[C@@H]12`: the EC50 was more than 1230 µM and the half-maximal inhibitory concentration (IC50) was more than 1230 µM. Turning to `O=S(=O)(O)SC/C=C\CSS(=O)(=O)O`, the outcome was inactive. With `O=C(CCc1ccccc1)NCCc1ccc(O)c(O)c1`, the EC50 is more than 200 µM and the IC50 worked out at 14.8 µM. The corresponding values for `COc1ccc(Cc2c[n+](C)cc3cc(N=O)c(OC)cc23)cc1O` are more than 200 µM and more than 200 µM. Turning to `CC(C)CC(NC(=O)C(Cc1ccc(O)cc1)NC(=O)C(CO)NC(=O)C(C)NC(=O)C(CCCN=C(N)N)NC(=O)C(CCC(N)=O)NC(=O)C(NC(=O)C(N)CCC(=O)O)C(C)C)C(=O)NC(CO)C(=O)NC(CCCCN)C(=O)O` (stereo not given) (H-EVQRASYLSK-OH; configuration not given here), the result was inactive.

Consider `CCOC(=O)CC(=O)ON(C)C(=O)Cc1ccccc1`, for which the EC50 was more than 251 µM and the IC50 is more than 251 µM.

The values are drawn from PubChem BioAssay AID179 (DTP/NCI, 2004).
